How the values were obtained:
Format in all cases: in vivo
[1] = system: Echinochloa crus-galli; experiment: Test Example 2: herbicidal effect test by treatment during growing period in paddy rice cultivation (seven days after seeding); conditions: 120 g/10a active ingredient, assessed 14 days after treatment, dry weight vs untreated area; for pest or weed control at 1200 g/ha: Echinochloa crus-galli, 336 h, read-out: herbicidal rate (%) Echinochloa crus-galli
Method in brief: (§1)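 Paddy soil in Wagner pots with compound fertilizer, puddled; 30 seeds per species sown at 0–1 cm, flooded ~3 cm, greenhouse. Seven days after seeding, water-diluted emulsions were dropped into the water at 120 g active ingredient per 10 ares. Duplicate pots; herbicidal rate from dry weight versus untreated, 14 days after treatment.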

[2] = system: Scirpus juncoides; experiment: as above; conditions: 120 g/10a active ingredient, assessed 14 days after treatment, dry weight vs untreated area; for pest or weed control at 1200 g/ha: Schoenoplectiella juncoides, 336 h, read-out: herbicidal rate (%) Scirpus juncoides
Method in brief: as §1

[3] = system: broad leaf weeds (Lindernia pyxidaria and Monochoria vaginalis); experiment: as above; conditions: 120 g/10a active ingredient, assessed 14 days after treatment, dry weight vs untreated area; for pest or weed control at 1200 g/ha: 336 h
Method in brief: as §1

[4] = system: Echinochloa crus-galli; experiment: Test Example 3: herbicidal effect test by treatment of dry field farming soil (one day after seeding); conditions: 120 g/10a active ingredient, evaluated 14 days after treatment; for pest or weed control at 1200 g/ha: Echinochloa crus-galli, 336 h, read-out: herbicidal rate, Echinochloa crus-galli
Method in brief: (§2)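 Pre-emergence soil treatment: alluvial dry-field soil, 20 seeds per species mixed into top 1 cm, emulsion diluted in water sprayed one day after seeding at 100 L per 10 ares (120 g active ingredient per 10 ares). Duplicate pots; herbicidal rate (%) from dry weight vs untreated at 14 days.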

[5] = system: southern crabgrass; experiment: as above; conditions: 120 g/10a active ingredient, evaluated 14 days after treatment; for pest or weed control at 1200 g/ha: Digitaria ciliaris, 336 h, read-out: herbicidal rate, southern crabgrass
Method in brief: as §2

[6] = system: Amaranthus viridis; experiment: as above; conditions: 120 g/10a active ingredient, evaluated 14 days after treatment; for pest or weed control at 1200 g/ha: Amaranthus viridis, 336 h, read-out: herbicidal rate, Amaranthus viridis
Method in brief: as §2

[7] = system: Chenopodium album; experiment: as above; conditions: 120 g/10a active ingredient, evaluated 14 days after treatment; for pest or weed control at 1200 g/ha: Chenopodium album, 336 h, read-out: herbicidal rate, Chenopodium album
Method in brief: as §2

[8] = system: Echinochloa crus-galli; experiment: Test Example 4: herbicidal effect test by treatment of leave and stem in dry field farming (seven days after seeding); conditions: 120 g/10a active ingredient, emulsion sprayed seven days after seeding, evaluated 14 days after treatment; for pest or weed control at 1200 g/ha: Echinochloa crus-galli, 336 h, read-out: herbicidal effect (herbicidal rate), Echinochloa crus-galli
Method in brief: (§3)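 Duplicate pots were scored 14 days post-spray by dry weight, herbicidal rate = {1 − treated/untreated average dry weight} × 100. The water-diluted emulsion, equivalent to 120 g active ingredient per 10 ares in 100 L, was applied seven days after sowing 20 seeds each into the upper 1 cm of alluvial soil.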

[9] = system: southern crabgrass; experiment: as above; conditions: 120 g/10a active ingredient, emulsion sprayed seven days after seeding, evaluated 14 days after treatment; for pest or weed control at 1200 g/ha: Digitaria ciliaris, 336 h, read-out: herbicidal effect (herbicidal rate), southern crabgrass
Method in brief: as §3

[10] = system: Amaranthus viridis; experiment: as above; conditions: 120 g/10a active ingredient, emulsion sprayed seven days after seeding, evaluated 14 days after treatment; for pest or weed control at 1200 g/ha: Amaranthus viridis, 336 h, read-out: herbicidal effect (herbicidal rate), Amaranthus viridis
Method in brief: as §3

[11] = system: Chenopodium album; experiment: as above; conditions: 120 g/10a active ingredient, emulsion sprayed seven days after seeding, evaluated 14 days after treatment; for pest or weed control at 1200 g/ha: Chenopodium album, 336 h, read-out: herbicidal effect (herbicidal rate), Chenopodium album
Method in brief: as §3

[12] = system: Echinochloa crus-galli; experiment: Test Example 1: herbicidal effect test by treatment of rice paddy soil (immediately after seeding); conditions: 120 g/10a active ingredient, dry weight vs untreated area, 14 days after treatment; for pest or weed control at 1200 g/ha: in Echinochloa crus-galli, 336 h, read-out: Herbicidal rate (%) Echinochloa crus-galli
Method in brief: (§4)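 Puddled, fertilized (N:P:K=17:17:17) paddy soil in Wagner pots; seeds sown 0–1 cm deep, flooded to about 3 cm. Emulsifiable formulations diluted in water and dropped into the water immediately after seeding at 120 g active ingredient per 10 ares; greenhouse. Herbicidal rate from dry weight vs untreated at 14 days.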

[13] = system: Scirpus juncoides; experiment: as above; conditions: 120 g/10a active ingredient, dry weight vs untreated area, 14 days after treatment; for pest or weed control at 1200 g/ha: in Schoenoplectiella juncoides, 336 h, read-out: Herbicidal rate (%) Scirpus juncoides
Method in brief: as §4

[14] = system: broad leaf weeds (Lindernia pyxidaria and Monochoria vaginalis); experiment: as above; conditions: 120 g/10a active ingredient, dry weight vs untreated area, 14 days after treatment; for pest or weed control at 1200 g/ha: 336 h
Method in brief: as §4

[15] = Lindernia pyxidaria, read-out: herbicidal rate (%) Lindernia pyxidaria
[16] = Monochoria vaginalis, read-out: herbicidal rate (%) Monochoria vaginalis
[17] = Monochoria vaginalis, read-out: Herbicidal rate (%) Monochoria vaginalis
[18] = in Lindernia, Lindernia pyxidaria, read-out: Herbicidal rate (%) Lindernia pyxidaria

| Structure (SMILES) | Herbicidal rate (%) Echinochloa crus-galli [1] | Herbicidal rate (%) Scirpus juncoides [2] | Herbicidal rate (%) Lindernia pyxidaria ([3]; Lindernia pyxidaria) | Herbicidal rate (%) Monochoria vaginalis ([3]; Monochoria vaginalis) | herbicidal rate, Echinochloa crus-galli [4] | herbicidal rate, southern crabgrass [5] | herbicidal rate, Amaranthus viridis [6] | herbicidal rate, Chenopodium album [7] | herbicidal effect (herbicidal rate), Echinochloa crus-galli [8] | herbicidal effect (herbicidal rate), southern crabgrass [9] | herbicidal effect (herbicidal rate), Amaranthus viridis [10] | herbicidal effect (herbicidal rate), Chenopodium album [11] | Herbicidal rate (%) Echinochloa crus-galli [12] | Herbicidal rate (%) Scirpus juncoides [13] | Herbicidal rate (%) Lindernia pyxidaria ([14]; Lindernia pyxidaria) | Herbicidal rate (%) Monochoria vaginalis ([14]; Monochoria vaginalis) | other results |
| --- | --- | --- | --- | --- | --- | --- | --- | --- | --- | --- | --- | --- | --- | --- | --- | --- | --- |
| COCCn1oc(=O)c(Cc2ccccc2NS(=O)(=O)C(F)(F)F)c1C [Compound 1-148] | 90% | 90% | 60% | 80% | 100% | 100% | 80% | 80% | 90% | 80% | 40% | 40% | 90% | 100% | 100% | 90% | – |
| COCC(C)n1oc(=O)c(Cc2ccccc2N(C(C)=O)S(=O)(=O)C(F)(F)F)c1C (centres unmarked) [Compound 1-304] | 90% | 90% | 90% | 90% | 90% | 90% | 90% | 90% | 90% | 90% | 40% | 40% | 90% | 90% | 90% | 90% | – |
| Cc1c(Cc2ccccc2NS(=O)(=O)C(F)(F)F)c(=O)on1C [Compound 1-97] | 90% | 90% | 80% | 60% | 90% | 90% | 0% | 0% | 90% | 90% | 40% | 40% | 100% | 100% | 100% | 100% | – |
| CC(=O)N(c1ccccc1Cc1c(C)n(CC(C)C)oc1=O)S(=O)(=O)C(F)(F)F [Compound 1-297, N-[2-[(2-isobutyl-3-methyl-5-oxoisoxazol-4-yl)methyl]phenyl]-N-(trifluoromethylsulfonyl)acetamide] | – | – | – | – | – | – | – | – | – | – | – | – | – | – | – | – | pest or weed control at 1200 g/ha [1]: 100%; pest or weed control at 1200 g/ha [2]: 90%; pest or weed control at 1200 g/ha [3, 15]: 100%; pest or weed control at 1200 g/ha [3, 16]: 90%; pest or weed control at 1200 g/ha [4]: 100%; pest or weed control at 1200 g/ha [5]: 90%; pest or weed control at 1200 g/ha [6]: 90%; pest or weed control at 1200 g/ha [7]: 90%; pest or weed control at 1200 g/ha [8]: 80%; pest or weed control at 1200 g/ha [9]: 60%; pest or weed control at 1200 g/ha [10]: 40%; pest or weed control at 1200 g/ha [11]: 40%; pest or weed control at 1200 g/ha [12]: 100%; pest or weed control at 1200 g/ha [13]: 100%; pest or weed control at 1200 g/ha [14, 17]: 100%; pest or weed control at 1200 g/ha [14, 18]: 100% |
| CCC(C)n1oc(=O)c(Cc2ccccc2N(C(=O)OC(C)C)S(=O)(=O)C(F)(F)F)c1C (centres unmarked) [Compound 1-642] | 90% | 90% | 90% | 90% | 90% | 90% | 90% | 90% | 90% | 90% | 40% | 40% | 90% | 90% | 90% | 90% | – |
| Cc1c(Cc2ccccc2N(S(C)(=O)=O)S(=O)(=O)C(F)(F)F)c(=O)on1CC(C)(C)C [Compound 1-893] | 90% | 90% | 90% | 90% | 90% | 90% | 90% | 90% | 90% | 90% | 40% | 40% | 90% | 90% | 90% | 90% | – |
| Cc1c(Cc2ccccc2NS(=O)(=O)C(F)(F)F)c(=O)on1CC(C)C [Compound 1-105, 1,1,1-trifluoro-N-[2-[(2-isobutyl-3-methyl-5-oxoisoxazol-4-yl)methyl]phenyl]methanesulfonamide] | – | – | – | – | – | – | – | – | – | – | – | – | – | – | – | – | pest or weed control at 1200 g/ha [1]: 90%; pest or weed control at 1200 g/ha [2]: 90%; pest or weed control at 1200 g/ha [3, 15]: 90%; pest or weed control at 1200 g/ha [3, 16]: 90%; pest or weed control at 1200 g/ha [4]: 60%; pest or weed control at 1200 g/ha [5]: 90%; pest or weed control at 1200 g/ha [6]: 70%; pest or weed control at 1200 g/ha [7]: 50%; pest or weed control at 1200 g/ha [8]: 90%; pest or weed control at 1200 g/ha [9]: 50%; pest or weed control at 1200 g/ha [10]: 50%; pest or weed control at 1200 g/ha [11]: 40%; pest or weed control at 1200 g/ha [12]: 90%; pest or weed control at 1200 g/ha [13]: 90%; pest or weed control at 1200 g/ha [14, 17]: 100%; pest or weed control at 1200 g/ha [14, 18]: 100% |
| Cc1c(Cc2ccccc2NS(=O)(=O)C(F)(F)F)c(=O)on1CC1CCCCC1 [Compound 1-146] | 100% | 90% | 70% | 90% | 100% | 100% | 90% | 90% | 80% | 40% | 50% | 40% | 100% | 100% | 100% | 100% | – |

From patent publication US11109593B2, “Isoxazolin-5-one derivative and herbicide containing same as active ingredient” (HOKKO CHEMICAL INDUSTRY CO., LTD., priority 2017, dated 2021)
